Measurements taken from ChEMBL document CHEMBL5385844, “Discovery of novel imidazole chemotypes as isoform-selective JNK3 inhibitors for the treatment of Alzheimer's disease” (Eur J Med Chem, 2023).
The source made the active and inactive calls. The rule behind the calls is not given here.

Tests used:
[1] = biological target: T1, Dual specificity mitogen-activated protein kinase kinase 4 (Homo sapiens, UniProt P45985); assay: Inhibition of MKK4 (unknown origin) assessed as incorporation of 33P-ATP
T1 sequence (P45985 whole entry): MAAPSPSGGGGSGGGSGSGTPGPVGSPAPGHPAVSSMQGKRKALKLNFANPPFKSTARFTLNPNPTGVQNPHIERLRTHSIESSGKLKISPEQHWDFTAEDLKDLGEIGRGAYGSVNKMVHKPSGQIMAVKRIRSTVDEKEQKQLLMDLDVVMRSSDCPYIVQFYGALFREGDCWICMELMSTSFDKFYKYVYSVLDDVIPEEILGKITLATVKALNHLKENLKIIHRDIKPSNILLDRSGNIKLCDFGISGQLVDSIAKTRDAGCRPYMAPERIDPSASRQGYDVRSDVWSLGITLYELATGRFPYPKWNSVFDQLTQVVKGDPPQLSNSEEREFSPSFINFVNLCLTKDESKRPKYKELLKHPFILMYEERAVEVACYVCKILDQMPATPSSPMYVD

[2] = biological target: T2, MAPK/MAK/MRK overlapping kinase (Homo sapiens, UniProt Q9UQ07); assay: Inhibition of MOK (unknown origin) assessed as incorporation of 33P-ATP
T2 sequence (Q9UQ07 whole entry): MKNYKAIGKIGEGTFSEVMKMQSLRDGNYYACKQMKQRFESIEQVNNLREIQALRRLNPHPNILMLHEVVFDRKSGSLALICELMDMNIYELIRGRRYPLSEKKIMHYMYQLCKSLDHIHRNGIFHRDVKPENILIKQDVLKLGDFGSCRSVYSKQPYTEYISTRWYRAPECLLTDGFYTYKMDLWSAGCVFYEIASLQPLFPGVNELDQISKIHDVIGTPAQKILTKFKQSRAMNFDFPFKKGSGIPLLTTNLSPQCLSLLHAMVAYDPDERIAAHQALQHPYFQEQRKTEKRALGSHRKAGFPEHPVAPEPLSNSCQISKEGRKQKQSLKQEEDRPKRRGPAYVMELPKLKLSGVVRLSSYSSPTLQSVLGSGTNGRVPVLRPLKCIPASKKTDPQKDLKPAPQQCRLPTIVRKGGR

[3] = Toxicity in APP/PS1 mouse assessed as abnormal symptoms at 30 mg/kg, po treated 3 times/week for 1 month; assay type: organism-based; details: in vivo, 730 h, time 1 months
[4] = tested on: Mus musculus; assay: Anti-alzheimer activity against homozygous 3 x Tg mouse model assessed as escape latency time at 30 mg/kg, po administered daily for 2 months and measured after 60 days of treatment by Passive avoidance test (reference value: 43.44 +/- 7.35 sec); assay type: functional; details: 1460 h
[5] = Inhibition of human SAPK2a T106 mutant assessed as incorporation of 33P-ATP
[6] = Half life in Sprague-Dawley rat at 1 mg/kg, iv measured upto 24 hrs by UPLC analysis; assay type: ADME, organism-based; details: in vivo
[7] = tested on: Mus musculus; assay: Anti-alzheimer activity against APP/PS1 dE9 double transgenic mouse model assessed as escape latency time at 30 mg/kg, po administered 3 times/week for 1 month and measured after 27 days of treatment by Passive avoidance test (reference value: 18.5 +/- 2.3 sec); assay type: functional; details: time 27 day
[8] = biological target: Mitogen-activated protein kinase 8 (Homo sapiens, UniProt P45983); assay: Inhibition of human JNK1alpha1 assessed as incorporation of 33P-ATP
[9] = biological target: Mitogen-activated protein kinase 9 (Homo sapiens, UniProt P45984); assay: Inhibition of human JNK2alpha1 assessed as incorporation of 33P-ATP
[10] = biological target: Mitogen-activated protein kinase 10 (Rattus norvegicus) (UniProt P49187); assay: Inhibition of JNK3 in anisomycin-induced c-Jun phosphorylation in primary rat cortex neuron assessed as decrease in c-Jun phosphorylation at 20 uM pretreated for 90 mins followed by treated with anisomycin further incubated for 40 mins by Western blot analysis; assay type: cell-based; details: Primary cortical neuron
[11] = biological target: Mitogen-activated protein kinase 11 (Homo sapiens, UniProt Q15759); assay: Inhibition of human SAPK2b assessed as incorporation of 33P-ATP
[12] = Toxicity in APP/PS1 mouse assessed as dead animal at 10 mg/kg, po treated 3 times/week for 1 month; assay type: organism-based; details: in vivo, 730 h, time 1 months
[13] = AUC in Sprague-Dawley rat at 1 mg/kg, iv measured upto 24 hrs by UPLC analysis; assay type: ADME, organism-based; set-up: dose 1 mg/kg, time < 24 hrs, route iv; details: in vivo
[14] = tested on: Mus musculus; assay: Anti-alzheimer activity against homozygous 3 x Tg mouse model assessed as spontaneous alteration at 30 mg/kg, po administered daily for 2 months and measured after 57 days of treatment by Y-maze test (reference value: 46.81 +/- 2.76%); assay type: functional; details: 1460 h
[15] = biological target: Mitogen-activated protein kinase 10 (Rattus norvegicus) (UniProt P49187); assay: Inhibition of JNK3 mediated anisomycin-induced APP phosphorylation in rat cortical neurons at 10 to 20 uM incubated for 24 hrs by Western blot analysis; assay type: cell-based; details: Cortical neuron, dose 10-20 µM
[16] = Efflux ratio of apparent permeability basolateral to apical side over apical to basolateral side in human Caco-2 cells at 10 uM incubated for 1 hr by LC-MS/MS analysis; assay type: ADME, cell-based
[17] = AUC in Sprague-Dawley rat at 3 mg/kg, po measured upto 24 hrs by UPLC analysis; assay type: ADME, organism-based; set-up: time < 24 hrs, dose 3 mg/kg, route po; details: in vivo
[18] = biological target: Mitogen-activated protein kinase 10 (Rattus norvegicus) (UniProt P49187); assay: Inhibition of JNK3 in Amyloid beta (1 to 42)-induced c-Jun phosphorylation in primary rat cortex neuron assessed as decrease in c-Jun phosphorylation incubated for 24 hrs by Western blot analysis; assay type: cell-based; details: Primary cortical neuron, dose 10-20 µM
[19] = Cmax in Sprague-Dawley rat at 3 mg/kg, po measured upto 24 hrs by UPLC analysis; assay type: ADME, organism-based; set-up: dose 3 mg/kg, time < 24 hrs, route po; details: in vivo
[20] = tested on: Mus musculus; assay: Anti-alzheimer activity against APP/PS1 dE9 double transgenic mouse model assessed as time spent in platform quadrant at 10 mg/kg, po administered 3 times/week for 1 month and measured after 40 to 45 days of treatment by Morris water maze test (reference value: 11.06 +/- 1.53 %); assay type: functional; details: time 27 day
[21] = Toxicity in APP/PS1 mouse assessed as abnormal symptoms at 10 mg/kg, po treated 3 times/week for 1 month; assay type: organism-based; details: in vivo, 730 h, time 1 months
[22] = tested on: Mus musculus; assay: Anti-alzheimer activity against APP/PS1 dE9 double transgenic mouse model assessed as escape latency time at 10 mg/kg, po administered 3 times/week for 1 month and measured after 27 days of treatment by Passive avoidance test (reference value: 18.5 +/- 2.3 sec); assay type: functional; details: time 27 day

Chain of Mitogen-activated protein kinase 10 (Rattus norvegicus) (P49187 whole entry): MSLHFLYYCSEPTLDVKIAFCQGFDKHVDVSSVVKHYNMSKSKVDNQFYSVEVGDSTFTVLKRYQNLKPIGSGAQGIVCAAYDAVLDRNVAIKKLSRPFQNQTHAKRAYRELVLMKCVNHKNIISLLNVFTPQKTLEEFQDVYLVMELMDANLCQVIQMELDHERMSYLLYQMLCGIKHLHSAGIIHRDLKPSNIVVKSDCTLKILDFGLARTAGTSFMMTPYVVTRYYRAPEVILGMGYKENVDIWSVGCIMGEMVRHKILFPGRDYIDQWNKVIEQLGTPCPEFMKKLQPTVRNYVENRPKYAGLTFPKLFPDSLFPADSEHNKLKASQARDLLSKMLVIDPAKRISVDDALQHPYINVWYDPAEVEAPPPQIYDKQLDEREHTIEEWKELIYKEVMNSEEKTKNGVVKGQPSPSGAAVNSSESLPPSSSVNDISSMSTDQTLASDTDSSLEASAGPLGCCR
Chain of Mitogen-activated protein kinase 9 (P45984 whole entry): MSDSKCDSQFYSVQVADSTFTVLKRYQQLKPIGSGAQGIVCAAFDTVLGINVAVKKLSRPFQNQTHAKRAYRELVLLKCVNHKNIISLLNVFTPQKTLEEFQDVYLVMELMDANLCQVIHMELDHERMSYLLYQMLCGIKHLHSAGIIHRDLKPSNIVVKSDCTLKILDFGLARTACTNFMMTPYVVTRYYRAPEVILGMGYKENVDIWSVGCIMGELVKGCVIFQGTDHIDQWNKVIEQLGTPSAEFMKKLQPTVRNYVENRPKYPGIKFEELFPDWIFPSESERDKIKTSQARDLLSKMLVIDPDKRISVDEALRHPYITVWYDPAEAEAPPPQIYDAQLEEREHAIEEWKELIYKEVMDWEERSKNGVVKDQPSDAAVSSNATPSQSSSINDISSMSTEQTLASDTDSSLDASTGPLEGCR
Chain of Mitogen-activated protein kinase 8 (P45983 whole entry): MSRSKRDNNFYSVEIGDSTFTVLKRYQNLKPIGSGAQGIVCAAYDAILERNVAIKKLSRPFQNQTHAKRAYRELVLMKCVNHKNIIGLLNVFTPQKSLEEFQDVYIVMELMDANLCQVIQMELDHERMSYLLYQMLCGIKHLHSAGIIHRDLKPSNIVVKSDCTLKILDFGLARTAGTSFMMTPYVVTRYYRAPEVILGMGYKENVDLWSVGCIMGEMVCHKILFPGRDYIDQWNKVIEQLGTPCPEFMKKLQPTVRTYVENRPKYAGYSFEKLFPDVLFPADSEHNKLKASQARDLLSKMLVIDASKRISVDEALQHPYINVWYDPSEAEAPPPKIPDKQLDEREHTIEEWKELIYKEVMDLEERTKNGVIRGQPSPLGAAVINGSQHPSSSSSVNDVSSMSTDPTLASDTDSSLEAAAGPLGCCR
Chain of Mitogen-activated protein kinase 11 (Q15759 whole entry): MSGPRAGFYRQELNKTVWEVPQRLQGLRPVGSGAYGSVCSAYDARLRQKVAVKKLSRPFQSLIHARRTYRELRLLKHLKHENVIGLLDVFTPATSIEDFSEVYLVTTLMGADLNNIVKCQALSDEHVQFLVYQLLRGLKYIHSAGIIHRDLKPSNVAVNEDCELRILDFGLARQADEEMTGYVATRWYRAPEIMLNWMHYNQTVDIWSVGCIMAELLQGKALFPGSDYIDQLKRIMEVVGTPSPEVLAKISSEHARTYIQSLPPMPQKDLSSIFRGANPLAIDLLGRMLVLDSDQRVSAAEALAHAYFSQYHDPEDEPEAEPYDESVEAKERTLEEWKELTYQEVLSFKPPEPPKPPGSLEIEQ

Compound: N#CCc1cnc(-c2ccc3ccccc3c2)n1-c1ccnc(N[C@H]2CCCN(C(=O)C3CC3)C2)n1
- IC50 [1]: 0.97 µM
- IC50 [2]: 1.18 µM
- Activity [3]: Non-Toxic
- Time [4]: 54.09 s
- IC50 [5]: 1.19 µM
- half-life [6]: 13.2 min
- Time [7]: 49.5 s
- IC50 [8]: 0.86 µM
- IC50 [9]: 0.34 µM
- Activity [10]: Active
- IC50 [11]: 0.28 µM
- Activity [12]: Non-Toxic
- AUC at 24 h [13]: 718 ng·h/mL
- Activity [14]: 50.97%
- inhibition [15]: Active
- efflux ratio at 1 h, 10 µM [16]: 1.92
- AUC at 24 h [17]: 338 ng·h/mL
- Activity [18]: Dose-Dependent Effect
- Cmax [19]: 378 ng/mL
- Time [20]: 10.53 s
- Activity [21]: Non-Toxic
- Time [22]: 31.7 s
